Test results as given in patent US11292781B2, “Pyrimidine tricyclic enone derivatives for inhibition of ROR-gamma and other uses” (REATA PHARMACEUTICALS, INC., priority 2016, dated 2022).

What was measured:
[1] = test system: Nrf2 transcription factor (GST ARE luciferase reporter in AREc32 cells); test: AREc32 luciferase reporter assay; format: cell-based, human; details: EC2×: concentration required to increase GST ARE luciferase reporter activity by 2-fold, 19 hours
Text: A. AREc32 Luciferase Reporter Assay The AREc32 luciferase reporter assay allows for quantitative assessment of the endogenous activity of the Nrf2 transcription factor in cultured mammalian cells. AREc32 cells are derived from MCF-7 human breast carcinoma cells that were stably transfected with a reporter construct that contains the firefly luciferase gene located downstream of eight copies of the rat GSTA2 antioxidant response element (ARE) sequence (Wang et al., 2006; CXR Biosciences). Active NRF2 binds to the ARE sequences and increases expression of the firefly luciferase gene. […] Luciferase activity was determined using the ONE-Glo Luciferase assay (Promega). The luminescence signal was measured on a BMG Pherastar microplate reader. The mean luminescence value from test compound-treated wells was normalized to that from DMSO-treated wells and was represented as fold-induction. Data were analyzed using GraphPad Prism version 6.00 for Windows, GraphPad Software, La Jolla Calif. USA. A non-linear regression curve with log (agonist) vs. response using a variable slope was used to fit the data. […] EC2× values were interpolated from the curve.

[2] = test system: IL-17A levels in primary human CD4+ T cells differentiated into Th17 cells; test: IL-17 release from differentiated primary human T-cells (IL-17A HTRF); format: cell-based; details: primary human CD4+ T cells, Th17 differentiation, 46-hour incubation; read-out: hIL17 IC50
Experimental: C. IL-17 Release from Differentiated Primary Human T-Cells and Cell Viability Primary human cryopreserved CD4+ T Cells (Lonza, donor #0000402103) were plated in Lymphocyte Growth Medium-3 (LGM-3, Lonza) according to the manufacturer's recommendations, and allowed to recover for approximately 3 hours at 37° C. with 5% CO2 in a humidified atmosphere. […] Triplicate wells were plated for each test condition. DMSO (final concentration ≤0.1%) was used as the vehicle. Immediately after plating, CD4+ T cells were activated by adding Dynabeads Human T-Activator CD3/CD28 (Life Technologies; bead-to-cell ratio of 1:2.5) and differentiated into Th17 cells by adding a mixture of the following cytokines: transforming growth factor-β (TGF-β, 5 ng/mL), IL-6 (20 ng/mL), IL-23 (20 ng/mL), and […] (10 ng/mL). Undifferentiated control cells received only cytokine IL-2 (50 ng/mL). All human recombinant cytokines were purchased from R&D Systems. Following a 46-hour incubation at 37° C. with 5% CO2 in a humidified atmosphere, the plates were centrifuged for 3 minutes at 250×g, and half of the supernatant was transferred to a new plate to be used in the IL-17A assay (see below). Cell viability was assessed in the original plate using the CyQuant Direct Assay (Life Technologies). CyQuant values from test compound samples were normalized to those from DMSO-treated samples. The concentration of IL-17A in the supernatant was measured using the Homogeneous Time-Resolved Fluorescence (HTRF) assay (Cisbio Bioassays) according to the manufacturer's protocol. The assay was performed at room temperature in low volume, solid white 384-well plates (Greiner Bio-One). […] A non-linear regression analysis with log (inhibitor) vs. normalized response using a variable slope was applied to fit the data and determine the IC50 values for inhibition of IL-17A levels and cell viability.

| Structure (SMILES) | IC50 [2] | HRF2 ARE 2× [1] |
| --- | --- | --- |
| C[C@H]1C(=O)C(C#N)=C[C@@]2(C)c3nc(-c4ccnc5c4CCC5)nc(-c4ccccc4F)c3CC[C@H]12 [T80] | 58 nM | 312 nM |
| C[C@H]1C(=O)C(C#N)=C[C@@]2(C)c3nc(-c4ncnc5ccccc45)nc(-c4ccccc4F)c3CC[C@H]12 [T74] | 49 nM | 507 nM |
| CC(=O)Nc1cc(-c2nc(-c3ccccc3F)c3c(n2)[C@]2(C)C=C(C#N)C(=O)[C@H](C)[C@H]2CC3)ccn1 [T61] | 60 nM | 461 nM |
| C[C@H]1C(=O)C(C#N)=C[C@@]2(C)c3nc(-c4ncnc5ccccc45)nc(-c4cccc(F)c4)c3CC[C@H]12 [T113] | 48 nM | 734 nM |
| C[C@H]1C(=O)C(C#N)=C[C@@]2(C)c3nc(C4=CCCNC4)nc(-c4ccccc4)c3CC[C@H]12.Cl [T48] | 225 nM | 460 nM |
| C[C@H]1C(=O)C(C#N)=C[C@@]2(C)c3nc(-c4cnn5ccccc45)nc(-c4ccccc4F)c3CC[C@H]12 [T67] | 63 nM | 208 nM |
| C[C@H]1C(=O)C(C#N)=C[C@@]2(C)c3nc(-c4ccnc5ccccc45)nc(OC4CCCCC4)c3CC[C@H]12 [T96] | 58 nM | 492 nM |
| COc1nc(-c2ccnc3ccccc23)nc2c1CC[C@@H]1[C@@H](C)C(=O)C(C#N)=C[C@@]21C [T9] | 67 nM | 510 nM |
| CC1=C2CCc3c(-c4ccccc4F)nc(-c4ccnc5ccccc45)nc3[C@]2(C)C=C(C#N)C1=O [T38] | 374 nM | >2000 nM |
| CCC[C@@]12C=C(C#N)C(=O)C[C@H]1CCc1c(-c3ccccc3F)nc(-c3ccnc4ccccc34)nc12 [T156] | 54 nM | 333 nM |
| Cc1nc(-c2nc(-c3ccnc4ccccc34)nc3c2CC[C@@H]2[C@@H](C)C(=O)C(C#N)=C[C@@]32C)no1 [T106] | 173 nM | 139 nM |
| CC(C)CC[C@@]12C=C(C#N)C(=O)C[C@H]1CCc1c(-c3ccccc3F)nc(-c3ccnc4ccccc34)nc12 [T164] | 352 nM | 1059 nM |
| C[C@H]1C(=O)C(C#N)=C[C@@]2(C)c3nc(-c4ccnc5ccccc45)nc(OC4CCC4)c3CC[C@H]12 [T94] | 58 nM | 321 nM |
| C[C@H]1C(=O)C(C#N)C[C@@]2(C)c3nc(-c4ccnc5ccccc45)nc(-c4ccccc4F)c3CC[C@H]12 (stereo partly shown) [T186] | 195 nM | >2000 nM |
| C[C@H]1C(=O)C(C#N)=C[C@@]2(c3ccccc3)c3nc(-c4ccnc5ccccc45)nc(-c4ccccc4F)c3CC[C@H]12 [T148] | 77 nM | 1758 nM |
| C[C@H]1C(=O)C(C#N)=C[C@@]2(C)c3nc(-c4ccnc5ccc(F)cc45)nc(-c4ccccc4F)c3CC[C@H]12 [T89] | 62 nM | 274 nM |
| CC(=O)N1CCC=C(c2nc(-c3ccccc3)c3c(n2)[C@]2(C)C=C(C#N)C(=O)[C@H](C)[C@H]2CC3)C1 [T49] | 181 nM | 491 nM |
| Cc1cc(-c2nc(-c3ccccc3F)c3c(n2)[C@]2(C)C=C(C#N)C(=O)[C@H](C)[C@H]2CC3)ncn1 [T78] | 89 nM | 629 nM |
| CC(C)c1nc(-c2ccnc3ccccc23)nc2c1CC[C@@H]1[C@@H](C)C(=O)C(C#N)=C[C@@]21C [T42] | 165 nM | 513 nM |
| C[C@H]1C(=O)C(C#N)=C[C@@]2(C)c3nc(-c4ccnc5ccccc45)nc(N4CCCC4)c3CC[C@H]12 [T138] | 167 nM | 641 nM |
| CC(=O)N1CCC(c2nc(-c3ccccc3)c3c(n2)[C@]2(C)C=C(C#N)C(=O)[C@H](C)[C@H]2CC3)CC1 [T46] | 177 nM | 735 nM |
| C[C@H]1C(=O)C(C#N)=C[C@@]2(C)c3nc(-c4ccnnc4)nc(-c4ccccc4F)c3CC[C@H]12 [T79] | 143 nM | 109 nM |
| Cc1cc(-c2nc(-c3ccc(F)cc3)c3c(n2)[C@]2(C)C=C(C(N)=O)C(=O)[C@H](C)[C@H]2CC3)ccn1 [T184] | – | 1832 nM |
| COc1nc(-c2ccncc2)nc2c1CC[C@@H]1[C@@H](C)C(=O)C(C#N)=C[C@@]21C [T5] | – | 365 nM |
| Cc1cc(-c2nc(-c3ccccc3F)c3c(n2)[C@]2(C)C=C(C#N)C(=O)[C@H](C)[C@H]2C3)c2cccc(F)c2n1 [T172] | – | 998 nM |

More lines, main results first:

| IC50 [2] | Structure (SMILES) | HRF2 ARE 2× [1] |
| --- | --- | --- |
| 35 nM | C[C@H]1C(=O)C(C#N)=C[C@@]2(C)c3nc(-c4ccnc5cc(F)ccc45)nc(-c4ccccc4F)c3CC[C@H]12 [T76] | 315 nM |
| 22 nM | C[C@H]1C(=O)C(C#N)=C[C@@]2(C)c3nc(-c4ccc(-c5ccccc5)nc4)nc(-c4ccccc4F)c3CC[C@H]12 [T141] | 557 nM |
| 31 nM | C[C@H]1C(=O)C(C#N)=C[C@@]2(C)c3nc(-c4ccnc5c(F)cccc45)nc(-c4ccccc4F)c3CC[C@H]12 [T77] | 264 nM |
| 25 nM | C[C@]1(CCCO)C(=O)C(C#N)=C[C@@]2(C)c3nc(-c4ccnc(C5CC5)c4)nc(-c4ccccc4F)c3CC[C@H]12 [T136] | 518 nM |
| 35 nM | C[C@H]1C(=O)C(C#N)=C[C@@]2(C)c3nc(-c4ccnc5ccccc45)nc(OC4CCCC4)c3CC[C@H]12 [T97] | 330 nM |
| 20 nM | CC(C)c1cc(-c2nc(-c3ccccc3F)c3c(n2)[C@]2(C)C=C(C#N)C(=O)[C@H](C)[C@H]2CC3)c2ccccc2n1 [T123] | 371 nM |
| 18 nM | Cc1cc(-c2nc(-c3ccc(F)cc3)c3c(n2)[C@]2(C)C=C(C#N)C(=O)[C@H](C)[C@H]2CC3)c2ccccc2n1 [T109] | 251 nM |
| 34 nM | C[C@H]1C(=O)C(C#N)=C[C@@]2(C)c3nc(-c4cnc5ccccc5c4)nc(-c4ccccc4F)c3CC[C@H]12 [T59] | 311 nM |
| 42 nM | C[C@H]1C(=O)C(C#N)=C[C@@]2(C)c3nc(-c4nccc5ccccc45)nc(-c4ccccc4F)c3CC[C@H]12 [T75] | 552 nM |
| 33 nM | C[C@H]1C(=O)C(C#N)=C[C@@]2(C)c3nc(-c4ccnc(C5CC5)c4)nc(-c4ccccc4F)c3CC[C@H]12 [T53] | 380 nM |
| 31 nM | CC1(C)C(=O)C(C#N)=C[C@@]2(C)c3nc(-c4cc(CF)nc5ccccc45)nc(-c4ccccc4F)c3CC[C@H]12 [T122] | 402 nM |
| 36 nM | CC1(C)C(=O)C(C#N)=C[C@@]2(C)c3nc(-c4ccnc5c(F)cccc45)nc(-c4ccccc4F)c3CC[C@H]12 [T127] | 343 nM |
| 32 nM | CCC[C@H]1C(=O)C(C#N)=C[C@@]2(CCC)c3nc(-c4ccnc(C5CC5)c4)nc(-c4ccccc4F)c3CC[C@H]12 [T168] | 1239 nM |
| 26 nM | C[C@H]1C(=O)C(C#N)=C[C@@]2(C)c3nc(-c4ccc(C5CC5)nc4)nc(-c4ccccc4F)c3CC[C@H]12 [T140] | 451 nM |
| 31 nM | C[C@H]1C(=O)C(C#N)=C[C@@]2(C)c3nc(-c4ccnc(C(F)(F)F)c4)nc(-c4ccccc4F)c3CC[C@H]12 [T54] | 483 nM |
| 27 nM | CC1(C)C(=O)C(C#N)=C[C@@]2(C)c3nc(-c4ccnc(C5CC5)c4)nc(-c4ccccc4F)c3CC[C@H]12 [T125] | 549 nM |
